Ki data for 76 compounds are collected here from patent US8278306B2 (Vertex Pharmaceuticals Incorporated, priority 2006, dated 2012).

In the assay the target is T1, ROCK I (AA 6-553) (Homo sapiens, UniProt Q13464).
T1 construct: ROCK I (AA 6-553)
T1 sequence (Q13464 6-553, species assumed): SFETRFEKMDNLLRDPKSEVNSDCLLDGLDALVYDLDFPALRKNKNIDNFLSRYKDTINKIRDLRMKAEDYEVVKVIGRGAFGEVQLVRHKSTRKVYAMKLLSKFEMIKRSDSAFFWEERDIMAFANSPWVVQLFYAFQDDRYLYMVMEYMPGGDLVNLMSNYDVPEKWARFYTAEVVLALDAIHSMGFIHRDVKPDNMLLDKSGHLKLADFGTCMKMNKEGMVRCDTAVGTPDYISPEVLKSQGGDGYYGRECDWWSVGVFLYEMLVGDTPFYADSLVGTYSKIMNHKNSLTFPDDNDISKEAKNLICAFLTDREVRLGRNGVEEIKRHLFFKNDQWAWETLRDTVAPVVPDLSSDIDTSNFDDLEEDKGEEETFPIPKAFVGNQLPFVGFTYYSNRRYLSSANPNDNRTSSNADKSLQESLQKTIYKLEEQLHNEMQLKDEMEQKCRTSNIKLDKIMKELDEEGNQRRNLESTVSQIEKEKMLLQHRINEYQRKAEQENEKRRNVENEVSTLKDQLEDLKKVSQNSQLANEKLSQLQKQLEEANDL
The assay is described as follows: ROCK inhibition assay, standard coupled enzyme system. It counts as biochemical. The note with it: 45 nM ROCK I, 45 μM ATP, 200 μM peptide, 30° C. On the procedure:
Reactions were carried out in a solution containing 100 mM HEPES (pH 7.5), 10 mM MgCl2, 25 mM NaCl, 2 mM DTT and 1.5% DMSO.
For the compound `CCOc1cc(-c2csc(NC(=O)Cc3cc4c(cc3Cl)OCO4)n2)ccn1` [Compound 6], the Ki (commonly the equilibrium dissociation constant of an inhibitor or competing ligand from its target) is more than 1000 nM. `Nc1cc(-c2csc(NC(=O)Cc3ccc(F)cc3)n2)ccn1` [Compound 42] yielded an inhibition constant Ki of 100 to 1000 nM.

`CNc1cc(-c2csc(NC(=O)Cc3ccc(F)cc3F)n2)ccn1` [Compound 23] gave a Ki of 100 to 1000 nM. Take `O=C(Cc1ccccc1Cl)Nc1nc(-c2ccnc(Cl)c2)cs1` [Compound 10]: the inhibition constant (Ki) was in the range of 100 to 1000 nM. The same measure for `Nc1cc(-c2csc(NC(=O)Cc3cc4c(cc3Cl)OCO4)n2)ccn1` [Compound 17]: less than 100 nM; for `CN(C)c1cc(-c2csc(NC(=O)Cc3cc4c(cc3Cl)OCO4)n2)ccn1` [Compound 12]: more than 1000 nM. For `Cc1cc(-c2csc(NC(=O)Cc3cccc(OCCCN4CCN(C)CC4)c3)n2)ccn1` [Compound 39] the value was 100 to 1000 nM; for `O=C(Cc1ccccc1)Nc1nc(-c2ccnc(Cl)c2)cs1` [Compound 50], 100 to 1000 nM. For `O=C(Cc1ccc(F)cc1F)Nc1nc(-c2ccnc(NCc3ccccc3)c2)cs1` [Compound 25] the value was 100 to 1000 nM. For `O=C(Cc1ccc(OCCCN2CCNCC2)cc1Cl)Nc1cc(-c2ccnc(Cl)c2)cs1` [Compound 97], the Ki is less than 100 nM. With `CCNc1cc(-c2csc(NC(=O)Cc3cccc(OC)c3)n2)ccn1` [Compound 15], the inhibition constant Ki was 100 to 1000 nM.

`O=C(Cc1cccc(S(=O)(=O)N2CCOCC2)c1)Nc1cc(-c2ccnc(F)c2)cs1` [Compound 71]: the Ki was in the range of 100 to 1000 nM. Regarding `O=C(Cc1ccc(F)cc1F)Nc1nc(-c2ccnc(Cl)c2)cs1` [Compound 47], the inhibition constant Ki fell in the range of 100 to 1000 nM. In the case of `Nc1cc(-c2csc(NC(=O)Cc3cccc(OCCCN4CCNCC4)c3)n2)ccn1` [Compound 52], the inhibition constant (Ki) is less than 100 nM. For `CCNc1cc(-c2csc(NC(=O)Cc3cc4c(cc3Cl)OCO4)n2)ccn1` [Compound 22] the value was 100 to 1000 nM; for `CN(C)S(=O)(=O)c1cccc(CC(=O)Nc2cc(-c3ccnc(F)c3)cs2)c1` [Compound 78], 100 to 1000 nM.

Turning to `CN1CCN(CCCOc2cccc(CC(=O)Nc3nc(-c4ccnc(N)c4)cs3)c2)CC1` [Compound 45], the Ki is less than 100 nM. For `CN(C)S(=O)(=O)c1cccc(CC(=O)Nc2cc(-c3ccnc(N)c3)cs2)c1` [Compound 79] the value was 100 to 1000 nM.

Consider `CS(=O)(=O)Nc1ccc(F)c(CC(=O)Nc2cc(-c3ccnc(N)c3)cs2)c1` [Compound 76], for which the Ki was less than 100 nM.

In turn, `Cc1cc(-c2csc(NC(=O)Cc3ccccc3F)n2)ccn1` [Compound 38] yielded a Ki of 100 to 1000 nM. The same measure for `COc1cccc(CC(=O)Nc2nc(-c3ccnc(NCc4ccccc4)c3)cs2)c1` [Compound 14]: more than 1000 nM.

On to `O=C(Cc1ccccc1F)Nc1nc(-c2ccnc(Cl)c2)cs1` [Compound 46], for which the Ki lay within 100 to 1000 nM. The same measure for `O=C(Cc1cccc(O)c1)Nc1cc(-c2ccnc(F)c2)cs1` [Compound 88]: less than 100 nM; for `Cc1cc(-c2csc(NC(=O)Cc3ccccc3)c2)ccn1` [Compound 87]: 100 to 1000 nM. The compound `NCCC(C(=O)Nc1cc(-c2ccnc(Cl)c2)cs1)c1ccc(F)cc1F` (stereo not shown) [Compound 104] showed a Ki of 100 to 1000 nM.

The compound `O=C(Cc1ccccc1F)Nc1nc(-c2ccnc(F)c2)cs1` [Compound 56] gave a Ki of less than 100 nM. In turn, `CN1CCN(CCCOc2cccc(CC(=O)Nc3nc(-c4ccnc(Cl)c4)cs3)c2)CC1` [Compound 53] showed a Ki of less than 100 nM. Take `CS(=O)(=O)Nc1ccc(F)c(CC(=O)Nc2cc(-c3ccnc(Cl)c3)cs2)c1` [Compound 100]: the Ki is less than 100 nM. For `O=C(Cc1ccc(F)cc1F)Nc1cc(-c2ccnc(F)c2)cs1` [Compound 69] the value was less than 100 nM; for `Nc1cc(-c2csc(NC(=O)Cc3ccc(F)cc3F)n2)ccn1` [Compound 16], less than 100 nM; for `CCNc1cc(-c2csc(NC(=O)Cc3ccc(F)cc3F)n2)ccn1` [Compound 21], 100 to 1000 nM. Regarding `O=C(Cc1cccc(OCCCN2CCNCC2)c1)Nc1nc(-c2ccnc(Cl)c2)cs1` [Compound 55], the Ki was less than 100 nM. `CCN1CCN(CCCOc2cccc(CC(=O)Nc3nc(-c4ccnc(Cl)c4)cs3)c2)CC1` [Compound 54] showed a Ki of less than 100 nM. For `Cc1cc(-c2csc(NC(=O)Cc3ccc(F)cc3)n2)ccn1` [Compound 40] the value was 100 to 1000 nM; for `Cc1cc(-c2csc(NC(=O)Cc3cc(NS(C)(=O)=O)ccc3F)c2)ccn1` [Compound 86], less than 100 nM; for `O=C(Cc1ccccc1)Nc1cc(-c2ccnc(F)c2)cs1` [Compound 66], less than 100 nM. For the compound `COc1cc(-c2csc(NC(=O)Cc3ccc(F)cc3)n2)ccn1` [Compound 4], the Ki is more than 1000 nM. Compound `Nc1cc(-c2csc(NC(=O)Cc3ccccc3Cl)n2)ccn1` [Compound 27] displayed a Ki of less than 100 nM. `Cc1cc(-c2csc(NC(=O)Cc3cccc(NS(=O)(=O)N(C)C)c3)c2)ccn1` [Compound 84]: the Ki is 100 to 1000 nM. For `CCOc1cc(-c2csc(NC(=O)Cc3ccc(F)cc3)n2)ccn1` [Compound 7] the value was more than 1000 nM; for `CN1CCN(CCOc2cccc(CC(=O)Nc3cc(-c4ccnc(N)c4)cs3)c2)CC1` [Compound 106], less than 100 nM; for `O=C(Cc1cccc(O)c1)Nc1nc(-c2ccnc(Cl)c2)cs1` [Compound 48], less than 100 nM.

`Nc1cc(-c2csc(NC(=O)Cc3cccc(OCCCCl)c3)n2)ccn1` [Compound 24] had a Ki of 100 to 1000 nM.

As to `CCN(CC)S(=O)(=O)c1cccc(CC(=O)Nc2cc(-c3ccnc(F)c3)cs2)c1` [Compound 70], the Ki is less than 100 nM.

Compound `Cc1cc(-c2csc(NC(=O)Cc3ccc(F)cc3F)n2)ccn1` [Compound 30] registered a Ki of 100 to 1000 nM.

With `CS(=O)(=O)Nc1cccc(CC(=O)Nc2nc(-c3ccnc(F)c3)cs2)c1` [Compound 59], the Ki was less than 100 nM.

`CS(=O)(=O)Nc1cccc(CC(=O)Nc2nc(-c3ccnc(Cl)c3)cs2)c1` [Compound 51] registered a Ki of 100 to 1000 nM. Compound `CCOc1cc(-c2csc(NC(=O)Cc3cccc(OC)c3)n2)ccn1` [Compound 5] displayed a Ki of more than 1000 nM. The compound `Cc1cc(-c2csc(NC(=O)Cc3cc4c(cc3Cl)OCO4)n2)ccn1` [Compound 32] yielded a Ki of less than 100 nM. `Cc1cc(-c2csc(NC(=O)Cc3ccccc3Cl)n2)ccn1` [Compound 33] showed a Ki of 100 to 1000 nM.

`Cc1cc(-c2csc(NC(=O)Cc3cccc(S(=O)(=O)N(C)C)c3)c2)ccn1` [Compound 83] displayed a Ki of more than 1000 nM.

`Nc1cc(-c2csc(NC(=O)Cc3ccccc3)n2)ccn1` [Compound 41] gave a Ki of less than 100 nM.

In the case of `CS(=O)(=O)Nc1ccc(F)c(CC(=O)Nc2cc(-c3ccnc(F)c3)cs2)c1` [Compound 68], the Ki was less than 100 nM. For `CNc1cc(-c2csc(NC(=O)Cc3ccccc3Cl)n2)ccn1` [Compound 28] the value was 100 to 1000 nM.

`Cc1cc(-c2csc(NC(=O)Cc3cccc(O)c3)n2)ccn1` [Compound 37] displayed a Ki of less than 100 nM. The compound `Cc1cc(-c2csc(NC(=O)Cc3ccc(NS(C)(=O)=O)cc3)n2)ccn1` [Compound 44] gave a Ki of 100 to 1000 nM.

As for `CS(=O)(=O)Nc1ccc(CC(=O)Nc2nc(-c3ccnc(N)c3)cs2)cc1` [Compound 43], the Ki was 100 to 1000 nM.

Compound `CN(C)c1cc(-c2csc(NC(=O)Cc3ccccc3Cl)n2)ccn1` [Compound 11] came in with a Ki of more than 1000 nM. Turning to `CCOc1cc(-c2csc(NC(=O)Cc3ccccc3Cl)n2)ccn1` [Compound 8], the Ki is more than 1000 nM. The same measure for `Cc1cc(-c2csc(NC(=O)Cc3cccc(NS(C)(=O)=O)c3)c2)ccn1` [Compound 82]: 100 to 1000 nM; for `CN1CCN(CCOc2ccc(CC(=O)Nc3cc(-c4ccnc(Cl)c4)cs3)c(Cl)c2)CC1` [Compound 96]: less than 100 nM; for `CN1CCN(CCCOc2ccc(CC(=O)Nc3cc(-c4ccnc(Cl)c4)cs3)c(Cl)c2)CC1` [Compound 98]: less than 100 nM. In the case of `O=C(Cc1ccc(OCCCC2CCNCC2)cc1)Nc1cc(-c2ccnc(Cl)c2)cs1` [Compound 99], the Ki is less than 100 nM. Take `Cc1cc(-c2csc(NC(=O)Cc3ccccc3)n2)ccn1` [Compound 36]: the inhibition constant Ki is 100 to 1000 nM. For `Nc1cc(-c2csc(NC(=O)Cc3ccccc3F)n2)ccn1` [Compound 35] the value was less than 100 nM; for `CCNc1cc(-c2csc(NC(=O)Cc3ccccc3Cl)n2)ccn1` [Compound 29], 100 to 1000 nM; for `O=C(Cc1ccc(F)cc1)Nc1nc(-c2ccnc(Cl)c2)cs1` [Compound 2], 100 to 1000 nM. The same measure for `O=C(Cc1cc2c(cc1Cl)OCO2)Nc1nc(-c2ccnc(NCc3ccccc3)c2)cs1` [Compound 26]: 100 to 1000 nM; for `O=C(Cc1ccc(F)cc1F)Nc1nc(-c2ccnc(F)c2)cs1` [Compound 58]: less than 100 nM; for `O=C(Cc1cc2c(cc1Cl)OCO2)Nc1nc(-c2ccnc(Cl)c2)cs1` [Compound 49]: less than 100 nM. `O=C(Cc1ccc(F)cc1)Nc1cc(-c2ccnc(F)c2)cs1` [Compound 67]: the Ki is less than 100 nM. For `O=C(Cc1ccc(OCCN2CCNCC2)cc1Cl)Nc1cc(-c2ccnc(Cl)c2)cs1` [Compound 95] the value was less than 100 nM; for `O=C(Cc1ccc(F)cc1)Nc1nc(-c2ccnc(F)c2)cs1` [Compound 57], 100 to 1000 nM. The compound `Cc1cc(-c2csc(NC(=O)Cc3ccccc3F)c2)ccn1` [Compound 81] displayed a Ki of 100 to 1000 nM. The same measure for `Nc1cc(-c2csc(NC(=O)Cc3cccc(O)c3)n2)ccn1` [Compound 34]: less than 100 nM. Compound `CN1CCN(CCCOc2cccc(CC(=O)Nc3nc(-c4ccnc(F)c4)cs3)c2)CC1` [Compound 60] came in with a Ki of less than 100 nM.
